Activity calls are given as the source filed them. No cut-off for these calls is given here.
Key:
[1] = system: Human immunodeficiency virus 1; test: Antiviral activity against HIV1 NL4-3 with gp120 mutation […] infected in human MT4 cells assessed as inhibition of virus-induced cytopathic effect after 5 days by MTT assay; type: functional, organism-based; details: Human immunodeficiency virus 1, NL4-3, MT4, 120 h
[2] = system: Human immunodeficiency virus 1; test: Antiviral activity against HIV1 NL4-3 infected in human MT4 cells assessed as inhibition of virus-induced cytopathic effect after 5 days by MTT assay; type: functional, organism-based; details: Human immunodeficiency virus 1, NL4-3, MT4, 120 h
[3] = Cytotoxicity against human MT4 cells after 5 days by MTT assay; type: cell-based
[4] = system: Human immunodeficiency virus 1; test: Antiviral activity against HIV1 NL4-3 infected in human MT4 cells assessed as capsid p24antigen production at 100 times EC50 treated after infection by ELISA; type: functional, organism-based
[5] = system: Human immunodeficiency virus 1; test: Antiviral activity against HIV1 NL4-3 infected in human MT4 cells assessed as capsid p24antigen production at 100 times EC50 treated before infection by ELISA; type: functional, organism-based

Compound	EC50 [1]	EC50 [2]	CC50 at 120 h [3]	Activity [4]	Activity [5]
CCOC(=O)/C(=C\c1ccc(-c2cccc([N+](=O)[O-])c2)o1)C(=O)c1ccccc1	> 64 µM	9 µM	> 64 µM	inactive	Active
C=CCn1c(SCc2ccc(C(=O)NCCO)cc2)nc2ccccc2c1=O	–	> 63 µM	> 63 µM	–	–
COc1ccc(/C=N/c2nc3ccccc3n2Cc2ccc(Cl)cc2)cc1OC	–	> 62 µM	> 62 µM	–	–
CCOC(=O)[C@H](Cc1ccc(/N=C/c2cc(Br)ccc2O)cc1)N1C(=O)c2ccccc2C1=O	> 48 µM	22 µM	> 48 µM	–	–
C[C@@H]1CN(C(=O)c2ccccc2)CCN1C(=O)C(=O)c1cc2ccccc2[nH]1	> 2.66 µM	0.024 µM	> 2.66 µM	–	–
COc1nc(N/N=C/c2ccc(-c3ccc(Cl)c([N+](=O)[O-])c3)o2)nc(N2CCOCC2)n1	–	> 54 µM	> 54 µM	–	–
